Experimental data from article PMC9090415, “Discovery of small molecule inhibitors of Plasmodium falciparum apicoplast DNA polymerase” (Journal of Enzyme Inhibition and Medicinal Chemistry, 2022).

Molecular target: P. falciparum apicoplast DNA polymerase (Pf-apPOL) (Plasmodium falciparum, UniProt Q8ILY1)
Test: Fluorescence-based high-throughput DNA polymerase assay (molecular beacon), primary screen and dose-response
Format: biochemical
Conditions: for DNA Pol: unit not given, 90 min, 10 µM; for IC50: supplemental file 2, sheet IC50 nontoxic compounds, Pf-apPOL
Description: The HT assay employs a molecular beacon, a stem-loop DNA template with a Cy3 dye and the Black Hole Quencher on the 3′ and 5′ ends of the DNA, respectively. Pf-apPOL concentration is based on a calculated absorptivity of ε280 = 56750 M^−1 cm^−1. Reactions were carried out at 25 °C, using Corning 3575 […] (well-volume, 20 µL). Assays testing for compound inhibition composed of reaction buffer (pH 7.9 in 50 mM potassium acetate, 20 mM Tris-acetate and 10 mM magnesium acetate), Pf-apPOL (20 nM), DNA substrate (20 nM), dNTPs (6 µM), and compound (10 µM in DMSO). The DNA and nucleotide substrates (dNTPs) were at concentrations of 20 nM and 6 µM, respectively, in the assay. Pf-apPOL was incubated in the reaction buffer with dNTPs and the compound of interest (10 µM, in the assay) at 25 °C for 10 min. The DNA substrate was then added and the reaction was allowed to proceed for 90 min at 25 °C.
Each assay plate contained 16 negative controls (no Pf-apPOL, DMSO present) and 16 positive controls (Pf-apPOL present, no DMSO). The fluorescence of each well was determined using a BioTek Synergy Neo fluorescence plate reader using excitation and emission wavelengths of 555 and 570 nm, respectively.
In the above, Min is the average of fluorescence emission of the negative controls (substrate only), Max the average fluorescence emission from the positive controls (enzyme + substrate), and Test the emission from the assays in the presence of compounds (enzyme + compound + substrates). […] […] The IC50 of each compound was determined using Equation (2): (2) IC50= Vmax/(1+ (I/IC50)^n)
In the above, n measures cooperativity, with n > 1 indicating synergistic binding of more than a single molecule of the compound.
To identify apPOL inhibitors we utilised our previously developed high-throughput DNA polymerase assay. The HT assay is based on a molecular beacon DNA template that forms a stem-loop with a Cy3 dye and the Black Hole Quencher on the 3′ and 5′ ends of the DNA, respectively. DNA polymerase activity extends an annealed primer through the stem region, displacing the fluorophore from the quencher, thereby increasing its fluorescence (Figure 1(A)). The assay accurately recapitulates the kinetic behaviour of apPOL, as measured through more conventional low-throughput gel-based assays. The Z′ factor for the assay described here was 0.9 across all plates (data not shown).
Figure 1. High-throughput screening. (A) The fluorescent-based DNA polymerase assay used to screen the compound libraries. The DNA template strand is a hairpin loop with a primer annealed to the loop. The 3’ end of the primer is 11 bases away from the 6 bp duplex. Strand displacement activity of the DNA polymerase separates the Cy3 dye from the Black hole quencher leading to an increase in fluorescent signal. (B) The high-throughput assay workflow. The DNA polymerase is incubated with […] compound for 10 min prior to addition of the hairpin substrate. The reaction is quenched at 3 different time points and the fluorescent signal is measured and % inhibition is determined using the provided equation.

Sequence of P. falciparum apicoplast DNA polymerase (Pf-apPOL) (Q8ILY1 entry or part of it): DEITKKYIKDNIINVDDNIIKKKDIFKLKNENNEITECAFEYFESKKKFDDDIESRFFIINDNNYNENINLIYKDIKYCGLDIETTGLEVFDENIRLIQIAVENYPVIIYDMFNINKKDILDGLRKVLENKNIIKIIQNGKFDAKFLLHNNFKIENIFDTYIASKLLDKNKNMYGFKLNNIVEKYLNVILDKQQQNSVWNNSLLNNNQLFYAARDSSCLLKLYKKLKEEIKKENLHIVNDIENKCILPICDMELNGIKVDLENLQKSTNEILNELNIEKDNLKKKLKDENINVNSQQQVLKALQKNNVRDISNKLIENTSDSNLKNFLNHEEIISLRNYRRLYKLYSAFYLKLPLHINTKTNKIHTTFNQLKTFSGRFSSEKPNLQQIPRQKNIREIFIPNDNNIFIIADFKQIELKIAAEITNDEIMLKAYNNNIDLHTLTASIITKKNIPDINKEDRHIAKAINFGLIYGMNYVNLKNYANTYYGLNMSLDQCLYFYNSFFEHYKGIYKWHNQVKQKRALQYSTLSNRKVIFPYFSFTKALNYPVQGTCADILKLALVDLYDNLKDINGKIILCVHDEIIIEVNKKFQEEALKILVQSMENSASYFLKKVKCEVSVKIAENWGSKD

## Cc1ccc(CCNC(=O)c2cnn3c(O)c(Cc4ccccc4F)c(C)nc23)cc1 [KU0097142]
DRC-1, concentration 2.5
  % inhibition Apo pol 10': -13.7377%
DRC-1, concentration 5
  % inhibition Apo pol 10': -17.1874%
DRC-1, concentration 10
  % inhibition Apo pol 10': -18.6102%
DRC-1, concentration 20
  % inhibition Apo pol 10': 32.4745%
DRC-1, concentration 40
  % inhibition Apo pol 10': 80.8586%
DRC-1, concentration 80
  % inhibition Apo pol 10': 88.0629%
DRC-1, 90', concentration 2.5
  % inhibition Apol 90': -9.394%
DRC-1, 90', concentration 5
  % inhibition Apol 90': -5.811%
DRC-1, 90', concentration 10
  % inhibition Apol 90': -11.7224%
DRC-1, 90', concentration 20
  % inhibition Apol 90': 36.3215%
DRC-1, 90', concentration 40
  % inhibition Apol 90': 78.277%
DRC-1, 90', concentration 80
  % inhibition Apol 90': 85.9002%
DRC-1, 180', concentration 2.5
  % inhibition apPOL 180': -10.2215%
DRC-1, 180', concentration 5
  % inhibition apPOL 180': -8.372%
DRC-1, 180', concentration 10
  % inhibition apPOL 180': -12.5375%
DRC-1, 180', concentration 20
  % inhibition apPOL 180': 23.0268%
DRC-1, 180', concentration 40
  % inhibition apPOL 180': 70.309%
DRC-1, 180', concentration 80
  % inhibition apPOL 180': 81.7781%
DRC-2, 40', concentration 5 (unit not given)
  % inhibition Apol 40': 17%
DRC-2, 40', concentration 40 (unit not given)
  % inhibition Apol 40': 67%
DRC-2, 90', concentration 5 (unit not given)
  % inhibition ApPOL 90': 17%
DRC-2, 90', concentration 40 (unit not given)
  % inhibition ApPOL 90': 67%
DRC-2, 180', concentration 40 (unit not given)
  % inhibition apPOL 180': 62%
DRC-2, concentration 2.5
  % inhibition Apo pol 5': -3.79%
DRC-2, concentration 5
  % inhibition Apo pol 5': 11%
DRC-2, concentration 10
  % inhibition Apo pol 5': 15%
DRC-2, concentration 20
  % inhibition Apo pol 5': 45%
DRC-2, concentration 40
  % inhibition Apo pol 5': 57%
DRC-2, concentration 80
  % inhibition Apo pol 5': 62%
DRC-2, concentration 80 (unit not given)
  % inhibition Apo pol 5': 62%
DRC-2, 40', concentration 2.5
  % inhibition Apol 40': -0.896%
DRC-2, 40', concentration 5
  % inhibition Apol 40': 17%
DRC-2, 40', concentration 10
  % inhibition Apol 40': 21%
DRC-2, 40', concentration 20
  % inhibition Apol 40': 54%
DRC-2, 40', concentration 40
  % inhibition Apol 40': 67%
DRC-2, 40', concentration 80
  % inhibition Apol 40': 71%
DRC-2, 90', concentration 2.5
  % inhibition ApPOL 90': -1.26%
DRC-2, 90', concentration 5
  % inhibition ApPOL 90': 17%
DRC-2, 90', concentration 10
  % inhibition ApPOL 90': 19%
DRC-2, 90', concentration 20
  % inhibition ApPOL 90': 52%
DRC-2, 90', concentration 40
  % inhibition ApPOL 90': 67%
DRC-2, 90', concentration 80
  % inhibition ApPOL 90': 72%
DRC-2, 180', concentration 2.5
  % inhibition apPOL 180': -2.35%
DRC-2, 180', concentration 5
  % inhibition apPOL 180': 12%
DRC-2, 180', concentration 10
  % inhibition apPOL 180': 13%
DRC-2, 180', concentration 20
  % inhibition apPOL 180': 43%
DRC-2, 180', concentration 40
  % inhibition apPOL 180': 62%
DRC-2, 180', concentration 80
  % inhibition apPOL 180': 69%
Primary screen value of the 186 hits
  DNA Pol: 48
Primary screen value, head "DNA Pol"
  DNA Pol: 48

## Cc1ccc(C)n1-c1ccc(C(=O)NNC(=O)c2ccc3nccnc3c2)cc1 [Molecule 53]
  IC50: 20.4 µM

## Cc1ccc(NC(=O)Cn2ccc3c(=O)[nH]ccc32)cc1F [Molecule 48]
  IC50: 15.3 µM
